In PMC6041393, “A Mechanistic Model for Predicting Cell Surface Presentation of Competing Peptides by MHC Class I Molecules” (Frontiers in Immunology, 2018):
Read-outs that look alike come from different tables or passages of the source.

What was measured:
[1] = test system: E10 Fab; experiment: E10 Fab surface staining of peptide-pulsed RMA-S cells (flow cytometry); format: binding; conditions: flow cytometry surface staining of RMA-S cells pulsed with peptides
[2] = target: T1, H-2Db (Mus musculus, UniProt P01899); experiment: Brefeldin A (BFA) decay assay of pMHC complexes at the cell surface; format: cell-based; design: endogenous in cells; host or cells: RMA-S (TAP2-deficient mouse T cell line); conditions: for t1/2 (peptide half-life of pMHC complex): BFA decay assay, RMA-S cells kept overnight at 26°C, pulsed with 20 μM peptide 1 h at 26°C, BFA added, decay at 37°C, B22 anti-H-2Db staining, flow cytometry, exponential fit; for Off-rates: converted from BFA decay half-life as log(2)/half-life (s)
T1 sequence (P01899 25-362): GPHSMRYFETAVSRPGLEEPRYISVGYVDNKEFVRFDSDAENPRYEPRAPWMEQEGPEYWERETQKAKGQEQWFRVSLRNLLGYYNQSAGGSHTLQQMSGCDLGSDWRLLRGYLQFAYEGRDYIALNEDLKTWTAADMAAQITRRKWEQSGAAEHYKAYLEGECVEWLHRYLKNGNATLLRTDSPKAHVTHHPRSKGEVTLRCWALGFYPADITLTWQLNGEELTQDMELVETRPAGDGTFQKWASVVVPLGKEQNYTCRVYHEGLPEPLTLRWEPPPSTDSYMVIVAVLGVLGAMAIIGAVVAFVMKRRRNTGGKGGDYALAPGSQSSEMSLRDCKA
T1 sequence (P01887 21-119 partner): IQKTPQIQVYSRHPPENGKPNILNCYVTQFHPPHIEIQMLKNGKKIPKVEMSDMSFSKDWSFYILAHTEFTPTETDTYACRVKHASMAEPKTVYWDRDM
Procedure: Dissociation of pMHC complexes at the cell surface was assessed by BFA decay assay as described previously ([17]). RMA-S cells were incubated overnight at 26°C to maximize MHC-I surface expression. After being washed, 5 × 10^5 cells per well of a 96-U-bottom plate were pulsed, at different time intervals, with peptides (final concentration of 20 μM) for 1 h at 26°C. After washing with medium, de novo transport of MHC-I to the cell surface was blocked by the addition of BFA, and peptide-loaded RMA-S cells were incubated at 37°C to allow decay of unstable molecules. Cells were washed in FACS buffer and stained with B22 primary monoclonal Abs (conformation sensitive anti-H-2Db MAb) and goat anti-mouse IgG-PE secondary Abs (Abcam, Cambridge, UK) to detect peptide-loaded MHC-I molecules. Samples were analyzed by flow cytometry on a Fortessa X20 flow cytometer (BD, Oxford, UK), and data were analyzed with the Diva software. MFI values were background deducted by subtracting the MFI value obtained in the DMSO control at the last time point. Half-lives and off-rate constants were then determined by fitting the curves using an exponential trend line in the Excel software (Microsoft, USA).
We experimentally measured the stability of pMHC complexes by following their decay from the cell surface over time (“BFA decay assay” in Figure 2A), and used these measurements to calculate the corresponding unbinding rates of the peptides from MHC (Table 1; Figure S3 in Supplementary Material). Finally, to incorporate the effect of IFNγ into the model, we specified a new parameter (γ) that quantifies the increased supply of MHC and tapasin following IFNγ treatment.

[3] = target: T1, H-2Db; experiment: pMHC competition assay in co-transfected B6 fibroblasts; surface pMHC quantified with Qifikit beads, cytoplasmic peptide with mCherry beads; format: cell-based; conditions: for surface expression of ASN variant–H2Db: IFNγ-treated fibroblasts, E10 Fab staining; for change of surface expression of peptide–H2Db complexes with IFNγ: fibroblasts treated with IFNγ for 48 h versus untreated; for number of pMHC complexes presented on the cell surface: untreated fibroblasts, 1C3 Mab, Qifikit calibration beads
Procedure: Fibroblasts were seeded at 2 × 10^5 cells per 6 cm diameter Petri dish. When IFNγ treatment was applied, 1 µg of mouse IFNγ (Peprotech, Rocky Hill, USA) was added per Petri dish 4 h after seeding. Cells were transfected the following day with TransIT-LT1 (Mirus, Madison, USA) following the manufacturer’s recommendations using 2.5 µg of each Venus-Ub-peptide and mCherry-Ub-peptide constructs. 1 day after transfection cells were stained for 45 min on ice with primary reagents, 1C3 hybrid Mab neat supernatant, E10 purified Fab, B22, or Y3 purified Mabs to detect surface pMHC complexes. After washing, cells were incubated for 45 min with AF647-conjugated goat anti-human IgG (used after Fab primary) or goat anti-mouse (after mouse antibodies including 1C3) (Invitrogen/Molecular Probes, Eugene, USA). Flow cytometry was performed using a Fortessa X20 cytometer (BD) and the data were analyzed using FACS Diva software (BD).
mCherry flow cytometry calibration beads (Clontech/Takara, USA) were used, as recommended by the manufacturer, to calibrate the amount of mCherry molecules, equivalent to the number of peptide molecules expressed in the transfected cells. Beads were run through the flow cytometer using the same setup as for acquiring cells.
The number of […]-H2Db complexes presented on the cell surface was estimated using Qifikit beads (Dako, Glostrup, Denmark). Beads were treated as recommended by the manufacturer but stained with AF647-conjugated goat anti-mouse IgG (Invitrogen) at the same dilution as used to detect the 1C3 Mab on transfected cells. A calibration curve was drawn by plotting the MFI of the 5 peaks (x-axis) versus the lot-specific numbers of antibody molecules per bead (y-axis). The curve was then used to calculate the number of […]-H2Db complexes presented on the cell surface expressed in antibody-binding capacity units (number of primary mouse monoclonal antibodies per cell).
To establish how variation in the intracellular abundance of competing peptides influences cell surface presentation, we developed an assay in which intracellular peptide supply and pMHC cell surface abundance could be measured simultaneously (Figure 1A), assay adapted from Ref. ([35]). Furthermore, this method measures the abundance of peptides actually presented at the surface of living cells and not, as for quantitative high-throughput methods, the abundance of peptides remaining bound to MHC after biochemical purification of pMHC I complexes from cell lysates. Two fluorescent fusion proteins, Venus-ubiquitin-[…] (faster off-rate, see Table 1) and mCherry-ubiquitin-[…] (slower off-rate) are co-expressed in fibroblasts. Once expressed in the cytoplasm, the fusion proteins are cleaved by endogenous cytoplasmic ubiquitin hydrolases, releasing the peptides at an equimolecular ratio to their respective fluorescent reporter protein (Figure 1A) that can be quantified by flow cytometry ([36]) (Figure S1 in Supplementary Material). Using this system, the generation of peptides bypasses the proteasome. After translocation into the ER, peptides compete for loading onto MHC-I molecules and are transported to the cell surface where they can be quantified by flow cytometry (Figure 1A). Both fusion proteins were naturally expressed at a broad range of concentrations after transient transfection, allowing in a single experiment to compare peptide surface presentation in cells expressing low to high levels of both fusion proteins (Figure 1B). To analyze competition between both peptides, cells were partitioned into different gates according to their expression level of mCherry, reporter for the level of expression of […], and Venus, reporter for the level of […] (Figure 1B). Competition was then assessed by plotting surface expression of […]-H2Db as a function of increasing cytoplasmic expression of the […] target peptide for increasing levels of competing peptide (Venus levels 1–7 in Figure 1B). […]

[4] = test system: NIT-1 insulinoma cells; conditions: cited from earlier work; for enhancement of presentation by IFNγ: NIT-1 cells
Excerpt: IFNγ is well known to stimulate the immune system, increasing expression of MHC-I heavy chain, β2-microglobulin, subunits of the immunoproteasome (MECL1, LMP2, and LMP7), TAP, tapasin, the ER aminopeptidase associated with antigen processing (ERAAP) ([41]) and the tapasin-related protein (TAPBPR); it is produced as part of the immune response against viruses. ...

[5] = target: H-2Dd (Mus musculus, UniProt P01900); conditions: H-2Dd binding CT26 epitope; cited from earlier work
[6] = test system: B44:02; design: method as in PMID 26375851; conditions: B lymphoblastoid cell lines; cited from earlier work
[7] = NIT-1 cells after IFNγ treatment
[8] = mCherry-SSLENFRAYV at around 10^4 MFI units

Sequence | E10 score (E10 Fab binding to peptide–H2Db complexes) [1] | t1/2 (peptide half-life of pMHC complex) [2] | Off-rates [2] | other results
ASIENMETM | 8.9 MFI/1000 | 456 min | 2.5e-05 s⁻¹ | –
ASNENMETL | 11.8 MFI/1000 | 191 min | 6.1e-05 s⁻¹ | –
ASNENMETV | 16.8 MFI/1000 | 132 min | 8.8e-05 s⁻¹ | surface expression of ASN variant–H2Db [3]: unable to reach or remain at the cell surface at detectable levels
VYLKTNVFK | – | – | – | presentation, copies per cell [4, 7]: 25 copies per cell; enhancement of presentation by IFNγ [4]: 25 fold increase; presentation, copies per cell ([4]; untreated NIT-1 cells): 1 copies per cell
ASIENLETM | 1.8 MFI/1000 | 502 min | 2.3e-05 s⁻¹ | –
GGPESFYCASW | – | – | – | half-life [5]: 20 min
SSLENFRAYV | 3.8 MFI/1000 | 408 min | 2.8e-05 s⁻¹ | change of surface expression of peptide–H2Db complexes with IFNγ [3]: increased around fourfold; cytoplasmic expression at which surface expression could be detected ([3]; mCherry calibration beads): ~10^6 copies per cell; cytoplasmic expression in transfected cells ([3]; mCherry calibration beads, maximum): up to 10^8 copies per cell; cell surface abundance in the absence of competitor [3, 8]: around 4 × 10^4 complexes; copies expressed at the cell surface in the absence of competition ([3]; mCherry-SSLENFRAYV at around 10^4 MFI units, printed in brackets after non-IFNγ-treated cells): 25 × 10^4 copies; number of pMHC complexes presented on the cell surface ([3]; absence of ASNENMETM competition): up to 80,000 pMHC complexes; number of pMHC complexes presented on the cell surface ([3]; highest level of ASNENMETM competitor): ≤ 10,000 pMHC complexes
AETPDIKLF [human peptide derived from the RS5 protein, eluted from B44:02 complexes] | – | – | – | copies eluted from B44:02 complexes [6]: around 45,000 copies
SYFPEITHI | – | – | – | presentation, copies per cell [4, 7]: ~ 15,000 copies per cell; enhancement of presentation by IFNγ [4]: 7.5 fold increase; presentation, copies per cell ([4]; untreated NIT-1 cells): ~ 2,000 copies per cell
ASNENMETI | 13.1 MFI/1000 | 212 min | 5.4e-05 s⁻¹ | –
ASNENMETA | 14.2 MFI/1000 | 52 min | 0.00022 s⁻¹ | surface expression of ASN variant–H2Db [3]: unable to reach or remain at the cell surface at detectable levels
ASNEAMETM | 8.2 MFI/1000 | 43 min | 0.00027 s⁻¹ | surface expression of ASN variant–H2Db [3]: unable to reach or remain at the cell surface at detectable levels
ASNENMETM | 11.5 MFI/1000 | 223 min | 5.2e-05 s⁻¹ | change of surface expression of peptide–H2Db complexes with IFNγ [3]: increased around fourfold; ASNENMETM expression required to inhibit SSLENFRAYV presentation by 50%, with IFNγ compared to non-IFNγ-treated cells [3, 8]: around ten times more
ASNENLETM | 4.1 MFI/1000 | 238 min | 4.9e-05 s⁻¹ | –
